ChEMBL document CHEMBL1150515, “Synthesis and structure-activity relationships of novel THF 1-methylcarbapenems II” (1997)
Converted amounts (≈) assume the structure as drawn.

Key:
[1] = Antimicrobial activity against Xanthomonas maltophilia (GC 562); format: functional; conditions: Stenotrophomonas maltophilia
Escherichia coli [2] = test: Antimicrobial activity against Escherichia coli (ATCC 25922); format: functional
[3] = Antimicrobial activity against Enterobacter cloacae (GC 2209); format: functional
Escherichia coli [4] = test: Antimicrobial activity against Escherichia coli (GC 1792); format: functional
[5] = Antimicrobial activity against Citrobacter freundii (GC 2211); format: functional
[6] = test system: Acinetobacter calcoaceticus; test: Antimicrobial activity against Acinetobacter calcoaceticus (GC 756); format: functional
Staphylococcus aureus [7] = test: Antimicrobial activity against methicillin - resistant Staphylococcus aureus (GC 2220); format: functional
[8] = Antimicrobial activity against Enterococcus faecium (GC 1182); format: functional
Staphylococcus aureus [9] = test: Antimicrobial activity against Staphylococcus aureus (ATCC 29213); format: functional
[10] = Antimicrobial activity against Morganella morganii (GC 2213); format: functional
[11] = biological target: T1, Dipeptidase 1 (Sus scrofa) (UniProt P22412); test: Relative hydrolysis to that of imipenem was determined by hog renal dehydropeptidase
T1 sequence (whole entry): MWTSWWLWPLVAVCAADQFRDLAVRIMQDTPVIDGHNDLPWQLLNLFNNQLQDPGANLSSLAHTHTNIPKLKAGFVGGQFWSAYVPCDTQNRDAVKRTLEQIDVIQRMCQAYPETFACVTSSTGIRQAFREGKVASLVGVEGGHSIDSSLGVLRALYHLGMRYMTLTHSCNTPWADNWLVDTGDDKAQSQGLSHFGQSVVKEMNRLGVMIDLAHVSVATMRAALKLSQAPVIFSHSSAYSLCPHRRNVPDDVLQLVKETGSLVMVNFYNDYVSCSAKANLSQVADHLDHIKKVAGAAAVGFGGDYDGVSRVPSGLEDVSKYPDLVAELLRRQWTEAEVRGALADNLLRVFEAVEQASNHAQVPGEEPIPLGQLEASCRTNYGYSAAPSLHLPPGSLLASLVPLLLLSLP

[12] = Antimicrobial activity against Enterococcus faecalis (GC 842); format: functional
Pseudomonas aeruginosa [13] = test: Antimicrobial activity against Pseudomonas aeruginosa (GC 1544 OprD); format: functional
Escherichia coli [14] = test: Antimicrobial activity against Escherichia coli (GC 2205); format: functional
Pseudomonas aeruginosa [15] = test: Antimicrobial activity against Pseudomonas aeruginosa (ATCC 27853); format: functional

| Compound | MIC [1] [µg/mL] | MIC (Escherichia coli [2]) [µg/mL] | MIC [3] [µg/mL] | MIC (Escherichia coli [4]) [µg/mL] | MIC [5] [µg/mL] | MIC [6] [µg/mL] | MIC (Staphylococcus aureus [7]) [µg/mL] | MIC [8] [µg/mL] | MIC (Staphylococcus aureus [9]) [µg/mL] | MIC [10] [µg/mL] | Relative hydrolysis [11] | MIC [12] [µg/mL] | MIC (Pseudomonas aeruginosa [13]) [µg/mL] | MIC (Escherichia coli [14]) [µg/mL] | MIC (Pseudomonas aeruginosa [15]) [µg/mL] |
| --- | --- | --- | --- | --- | --- | --- | --- | --- | --- | --- | --- | --- | --- | --- | --- |
| CCN1CCN(C(=O)NCC2CC(SC3=C(C(=O)[O-])N4C(=O)[C@H]([C@@H](C)O)[C@H]4[C@H]3C)CO2)C(=O)C1=O.[Na+] (stereo partly specified) | > 128 | 2 | 8 | 4 | 32 | 128 | 32 | > 128 | 0.5 | 16 | 13 | 16 | 128 | 0.25 | > 128 |
| C[C@@H](O)[C@H]1C(=O)N2C(C(=O)O)=C(SCCNC=N)C[C@H]12 [IMIPENEM ANHYDROUS] | > 128 | 0.12 (≈ 0.401 µM) | ≤ 0.06 | ≤ 0.06 | 0.25 (≈ 0.835 µM) | 0.25 (≈ 0.835 µM) | 1 (≈ 3.34 µM) | 64 (≈ 214 µM) | ≤ 0.06 | 1 (≈ 3.34 µM) | 100 | 1 (≈ 3.34 µM) | 16 (≈ 53.4 µM) | 0.12 (≈ 0.401 µM) | 1 (≈ 3.34 µM) |
| CNC[C@H]1OCC[C@H]1SC1=C(C(=O)[O-])N2C(=O)[C@H]([C@@H](C)O)[C@H]2[C@H]1C.[Na+] | > 128 | ≤ 0.06 | ≤ 0.06 | ≤ 0.06 | 0.12 | 4 | 1 | > 64 | ≤ 0.06 | 0.5 | 10 | 0.5 | 32 | ≤ 0.06 | 8 |
| C[C@@H](O)[C@H]1C(=O)N2C(C(=O)[O-])=C(S[C@@H]3CCO[C@@H]3C/N=C\N)[C@H](C)[C@H]12.[Na+] | > 128 | ≤ 0.06 | ≤ 0.06 | ≤ 0.06 | 0.5 | 8 | 4 | > 128 | ≤ 0.06 | 1 | 18 | 2 | 32 | 0.12 | 16 |
| C[C@@H](O)[C@H]1C(=O)N2C(C(=O)[O-])=C(SC3COC(C[N+](C)(C)C)C3)[C@H](C)[C@H]12 (stereo partly specified) | > 128 | 0.25 (≈ 0.65 µM) | 0.25 (≈ 0.65 µM) | 0.25 (≈ 0.65 µM) | 1 (≈ 2.6 µM) | 16 (≈ 41.6 µM) | 16 (≈ 41.6 µM) | > 128 | 0.12 (≈ 0.312 µM) | 4 (≈ 10.4 µM) | – | 8 (≈ 20.8 µM) | 64 (≈ 166 µM) | 0.25 (≈ 0.65 µM) | 32 (≈ 83.2 µM) |
| C[C@@H](O)[C@H]1C(=O)N2C(C(=O)[O-])=C(SC3COC(C/N=C/N)C3)[C@H](C)[C@H]12.[Na+] (stereo partly specified) | > 128 | ≤ 0.06 | ≤ 0.06 | ≤ 0.06 | ≤ 0.06 | 2 | 8 | > 128 | ≤ 0.06 | 0.5 | – | 2 | 16 | ≤ 0.06 | 8 |
| C[C@@H](O)[C@H]1C(=O)N2C(C(=O)[O-])=C(SC3COC(C/N=C/N(C)C)C3)[C@H](C)[C@H]12.[Na+] (stereo partly specified) | > 128 | 0.12 | 0.12 | 0.12 | 0.5 | 16 | 16 | > 128 | 0.12 | 2 | – | 8 | 32 | 0.12 | 16 |
| CNCC(=O)NCC1CC(SC2=C(C(=O)[O-])N3C(=O)[C@H]([C@@H](C)O)[C@H]3[C@H]2C)CO1.[Na+] (stereo partly specified) | > 128 | ≤ 0.06 | ≤ 0.06 | ≤ 0.06 | 0.25 | 2 | 16 | > 128 | ≤ 0.06 | 0.25 | – | 4 | 32 | ≤ 0.06 | 32 |
